Laboratory results published in article PMC11811690 (Angewandte Chemie (International Ed. in English), 2024).
Values after ≈ are worked out from the molar mass of the structure shown. Read-outs that look alike come from different tables or passages of the source.

Experiments:
C. difficile 630 = test: microbe, parasite or virus in culture; type: cell-based, Clostridioides difficile
[1] = system: M. tuberculosis H37Rv poly-g-GFP; test: microbe, parasite or virus in culture; type: cell-based; details: Mycobacterium tuberculosis, H37RV, 240 h; concentration for 90 % inhibition of fluorescence as proxy for growth inhibition, 10 days, 37 °C; read-out: IC90 Mtb H37Rv-poly-g-GFP, fluorescence read-out
[2] = Clostridioides difficile, C. difficile 630, anaerobic, overnight, growth suppressed to OD600 < 0.15, read-out: MIC C. difficile

SMILES	MIC (C. difficile 630; [2]) [µg/mL]	IC90 [1] [µg/mL]	MIC (C. difficile 630; Clostridioides difficile, 630, read-out: MIC C. difficile) [µg/mL]
CC[C@H]1/C=C(\C)[C@@H](O)C/C=C/C=C(\CNc2cccc(CNC(=O)CCC(=O)O)c2)C(=O)O[C@H]([C@@H](C)O)C/C=C(C)/C=C(\C)[C@@H]1O[C@@H]1OC(C)(C)[C@@H](OC(=O)C(C)C)[C@H](O)[C@@H]1O [compound 28]	32 (≈ 36.8 µM)	> 64	–
CC[C@H]1/C=C(\C)[C@@H](O)C/C=C/C=C(\CNc2cccc(CNC(=O)Cc3nnn[nH]3)c2)C(=O)O[C@H]([C@@H](C)O)C/C=C(C)/C=C(\C)[C@@H]1O[C@@H]1OC(C)(C)[C@@H](OC(=O)C(C)C)[C@H](O)[C@@H]1O [compound 29]	> 32	64 (≈ 72.8 µM)	–
CC[C@H]1/C=C(\C)[C@@H](O)C/C=C/C=C(\CNc2cccc(CNC(=O)c3ccc(O)c(O)c3Cl)c2)C(=O)O[C@H]([C@@H](C)O)C/C=C(C)/C=C(\C)[C@@H]1O[C@@H]1OC(C)(C)[C@@H](OC(=O)C(C)C)[C@H](O)[C@@H]1O [compound 31]	32 (≈ 34.1 µM)	> 64	–
CC[C@H]1/C=C(\C)[C@@H](O)C/C=C/C=C(\CNc2nc(-c3cccc(O)c3)cs2)C(=O)O[C@H]([C@@H](C)O)C/C=C(C)/C=C(\C)[C@@H]1O[C@@H]1OC(C)(C)[C@@H](OC(=O)C(C)C)[C@H](O)[C@@H]1O [compound 32]	8 (≈ 9.53 µM)	4 to 8 (≈ 4.77 to 9.53 µM)	–
CC[C@H]1/C=C(\C)[C@@H](O)C/C=C/C=C(\CNc2nc(-c3cccc(OS(=O)(=O)F)c3)cs2)C(=O)O[C@H]([C@@H](C)O)C/C=C(C)/C=C(\C)[C@@H]1O[C@@H]1OC(C)(C)[C@@H](OC(=O)C(C)C)[C@H](O)[C@@H]1O [compound 33]	–	8 to 16 (≈ 8.69 to 17.4 µM)	> 32
CC[C@H]1/C=C(\C)[C@@H](O)C/C=C/C=C(\CNc2nc(-c3cccc(OS(=O)(=O)NC)c3)cs2)C(=O)O[C@H]([C@@H](C)O)C/C=C(C)/C=C(\C)[C@@H]1O[C@@H]1OC(C)(C)[C@@H](OC(=O)C(C)C)[C@H](O)[C@@H]1O [compound 34]	1 (≈ 1.07 µM)	8 (≈ 8.58 µM)	–
CC[C@H]1/C=C(\C)[C@@H](O)C/C=C/C=C(\CNc2nc(-c3cccc(OS(=O)(=O)N(C)C)c3)cs2)C(=O)O[C@H]([C@@H](C)O)C/C=C(C)/C=C(\C)[C@@H]1O[C@@H]1OC(C)(C)[C@@H](OC(=O)C(C)C)[C@H](O)[C@@H]1O [compound 35]	> 32	8 (≈ 8.45 µM)	–
CC[C@H]1/C=C(\C)[C@@H](O)C/C=C/C=C(\CNc2nc(-c3cccc(OS(=O)(=O)N4CCCC4)c3)cs2)C(=O)O[C@H]([C@@H](C)O)C/C=C(C)/C=C(\C)[C@@H]1O[C@@H]1OC(C)(C)[C@@H](OC(=O)C(C)C)[C@H](O)[C@@H]1O [compound 36]	> 32	8 (≈ 8.23 µM)	–
CC[C@H]1/C=C(\C)[C@@H](O)C/C=C/C=C(\CNc2nc(-c3cccc(OS(=O)(=O)NCCOC)c3)cs2)C(=O)O[C@H]([C@@H](C)O)C/C=C(C)/C=C(\C)[C@@H]1O[C@@H]1OC(C)(C)[C@@H](OC(=O)C(C)C)[C@H](O)[C@@H]1O [compound 37]	2 (≈ 2.05 µM)	8 (≈ 8.19 µM)	–
CC[C@H]1/C=C(\C)[C@@H](O)C/C=C/C=C(\CNc2nc(-c3cccc(OS(=O)(=O)Oc4ccccc4)c3)cs2)C(=O)O[C@H]([C@@H](C)O)C/C=C(C)/C=C(\C)[C@@H]1O[C@@H]1OC(C)(C)[C@@H](OC(=O)C(C)C)[C@H](O)[C@@H]1O [compound 38]	> 32	> 64	–
CC[C@H]1/C=C(\C)[C@@H](O)C/C=C/C=C(\CN2CCN(C)CC2)C(=O)O[C@H]([C@@H](C)O)C/C=C(C)/C=C(\C)[C@@H]1O[C@@H]1OC(C)(C)[C@@H](O)[C@H](OC(=O)c2ccoc2)[C@@H]1O [compound 41]	–	> 64	–
CC[C@H]1/C=C(\C)[C@@H](O)C/C=C/C=C(\CN2CCCCC2)C(=O)O[C@H]([C@@H](C)O)C/C=C(C)/C=C(\C)[C@@H]1O[C@@H]1OC(C)(C)[C@@H](O)[C@H](OC(=O)c2ccoc2)[C@@H]1O [compound 42]	–	> 64	–
CC[C@H]1/C=C(\C)[C@@H](O)C/C=C/C=C(\CN2CCN(CCCN(C)C)CC2)C(=O)O[C@H]([C@@H](C)O)C/C=C(C)/C=C(\C)[C@@H]1O[C@@H]1OC(C)(C)[C@@H](O)[C@H](OC(=O)c2ccoc2)[C@@H]1O [compound 43]	–	32 to 64 (≈ 38 to 76 µM)	–
CC[C@H]1/C=C(\C)[C@@H](O)C/C=C/C=C(\CN2CCN(C)CC2)C(=O)O[C@H]([C@@H](C)O)C/C=C(C)/C=C(\C)[C@@H]1O[C@@H]1OC(C)(C)[C@@H](O)[C@H](OC(=O)c2ccn(C)n2)[C@@H]1O [compound 44]	–	> 64	–
CC[C@H]1/C=C(\C)[C@@H](O)C/C=C/C=C(\CN2CCN(C)CC2)C(=O)O[C@H]([C@@H](C)O)C/C=C(C)/C=C(\C)[C@@H]1O[C@@H]1OC(C)(C)[C@@H](O)[C@H](OC(=O)c2ccnn2C)[C@@H]1O [compound 45]	–	> 64	–
CC[C@H]1/C=C(\C)[C@@H](O)C/C=C/C=C(\CN2CCN(C)CC2)C(=O)O[C@H]([C@@H](C)O)C/C=C(C)/C=C(\C)[C@@H]1O[C@@H]1OC(C)(C)[C@@H](O)[C@H](OC(=O)c2cnn(C)c2)[C@@H]1O [compound 46]	–	> 64	–
